From ChEMBL document CHEMBL4651402, “Screening of ~5500 FDA-approved drugs and clinical candidates for anti-SARS-CoV-2 activity” (2021) come the findings set out here.

One data set relates to SARS-CoV-2. Kind of data set: microbe, parasite or virus in culture. Type of data set: functional, organism-based, Chlorocebus sabaeus, Vero C1008. To be noted: Severe acute respiratory syndrome coronavirus 2, Vero C1008, 48 h; read-out: IC50.
`CN[C@@H]1C[C@@H](c2ccc(Cl)c(Cl)c2)c2ccccc21` [(R,S)-INDATRALINE]: the IC50 is greater than 100 µM.
On to `N#Cc1ccc2c(c1)N(CCCN1CCC(O)CC1)c1ccccc1S2` [PERICIAZINE], for which the IC50 is greater than 100 µM.
In the case of `CN1CCN(CC/C=C2/c3ccccc3Sc3ccc(S(=O)(=O)N(C)C)cc32)CC1` [THIOTHIXENE], the IC50 was found to be 5.75 µM.
Take `Clc1ccc(-c2nn(Cc3ccccc3)c3c2CCNCC3)cc1` [JNJ-18038683 FREE BASE]: the IC50 is greater than 25.1 µM.
For the molecule `COc1cc(/C=C/C(=O)CC(=O)/C=C/c2ccc(O)c(OC)c2)ccc1O` [CURCUMIN], the IC50 was greater than 100 µM.
On to `C[C@H]1[C@H]2CC[C@H]3[C@@H]4CC=C5C[C@@H](N(C)C)CC[C@]5(C)[C@H]4CC[C@]23CN1C` [CONESSINE], for which the IC50 was greater than 25.1 µM.
In the case of `CCOC(=O)[C@H]1O[C@@H]1C(=O)N[C@@H](CC(C)C)C(=O)NCCC(C)C` [ALOXISTATIN], the IC50 came to 85.1 µM.
On the same count and under the same terms, for `Nc1nc2nn[nH]c2c(=O)[nH]1` [8-AZAGUANINE] the value was greater than 50.1 µM.
Turning to `CN(C)CCOC1=Cc2ccccc2Sc2ccc(Cl)cc21` [ZOTEPINE], the IC50 was greater than 100 µM.
For `COc1ccc2cc1Oc1ccc(cc1)C[C@H]1c3cc(c(OC)cc3CCN1C)Oc1c(OC)c(OC)cc3c1[C@H](C2)N(C)CC3` [FANCHININ], the IC50 is greater than 50.1 µM.
For `Clc1ccc(C(c2ccccc2)N2CCN(C/C=C/c3ccccc3)CC2)cc1` (stereo unspecified) [CLOCINIZINE], the IC50 was found to be 20.9 µM.

The same data set, now with this note: Severe acute respiratory syndrome coronavirus 2, Vero C1008, 48 h; read-out: pIC50 (converted).
On to `CN[C@@H]1C[C@@H](c2ccc(Cl)c(Cl)c2)c2ccccc21` [(R,S)-INDATRALINE], for which the IC50 was greater than 100 µM.
Same read-out and setting: next, `N#Cc1ccc2c(c1)N(CCCN1CCC(O)CC1)c1ccccc1S2` [PERICIAZINE]: greater than 100 µM; `CN1CCN(CC/C=C2/c3ccccc3Sc3ccc(S(=O)(=O)N(C)C)cc32)CC1` [THIOTHIXENE]: 5.75 µM.
Same read-out and setting: next, `Clc1ccc(-c2nn(Cc3ccccc3)c3c2CCNCC3)cc1` [JNJ-18038683 FREE BASE]: greater than 25.1 µM; `COc1cc(/C=C/C(=O)CC(=O)/C=C/c2ccc(O)c(OC)c2)ccc1O` [CURCUMIN]: greater than 100 µM.
Turning to `C[C@H]1[C@H]2CC[C@H]3[C@@H]4CC=C5C[C@@H](N(C)C)CC[C@]5(C)[C@H]4CC[C@]23CN1C` [CONESSINE], the IC50 is greater than 25.1 µM.
Take `CCOC(=O)[C@H]1O[C@@H]1C(=O)N[C@@H](CC(C)C)C(=O)NCCC(C)C` [ALOXISTATIN]: the IC50 was 85.1 µM.
As to `Nc1nc2nn[nH]c2c(=O)[nH]1` [8-AZAGUANINE], the IC50 is greater than 50.1 µM.
On to `CN(C)CCOC1=Cc2ccccc2Sc2ccc(Cl)cc21` [ZOTEPINE], for which the IC50 was greater than 100 µM.
For `COc1ccc2cc1Oc1ccc(cc1)C[C@H]1c3cc(c(OC)cc3CCN1C)Oc1c(OC)c(OC)cc3c1[C@H](C2)N(C)CC3` [FANCHININ], the IC50 is greater than 50.1 µM.
Regarding `Clc1ccc(C(c2ccccc2)N2CCN(C/C=C/c3ccccc3)CC2)cc1` (stereo unspecified) [CLOCINIZINE], the IC50 was 20.9 µM.

System in another data set: not listed separately
Kind of data set: in vitro. The following applies: chlorocebus sabaeus, Vero E6 (Vero C1008) cells, CC50.
Turning to `CN[C@@H]1C[C@@H](c2ccc(Cl)c(Cl)c2)c2ccccc21` [(R,S)-INDATRALINE], half-maximal cytotoxicity (CC50 at 48 h) was put at 8.51 µM.
Regarding `N#Cc1ccc2c(c1)N(CCCN1CCC(O)CC1)c1ccccc1S2` [PERICIAZINE], it took 12.7 µM to reach half-maximal cytotoxicity (CC50 at 48 h). The CC50 at 48 h values of the last two molecules are within 1.5-fold of each other.
In the case of `CN1CCN(CC/C=C2/c3ccccc3Sc3ccc(S(=O)(=O)N(C)C)cc32)CC1` [THIOTHIXENE], the CC50 (usually the concentration giving 50% cytotoxicity) at 48 h was 4.96 µM.
`Clc1ccc(-c2nn(Cc3ccccc3)c3c2CCNCC3)cc1` [JNJ-18038683 FREE BASE] had a CC50 at 48 h of 14.6 µM.
Molecule `COc1cc(/C=C/C(=O)CC(=O)/C=C/c2ccc(O)c(OC)c2)ccc1O` [CURCUMIN] came in with a 50% cytotoxic concentration (CC50) at 48 h of 14.8 µM.
Same read-out and setting: next, `C[C@H]1[C@H]2CC[C@H]3[C@@H]4CC=C5C[C@@H](N(C)C)CC[C@]5(C)[C@H]4CC[C@]23CN1C` [CONESSINE]: 34.7 µM.
The molecule `CCOC(=O)[C@H]1O[C@@H]1C(=O)N[C@@H](CC(C)C)C(=O)NCCC(C)C` [ALOXISTATIN] showed a CC50 at 48 h greater than 100 µM.
`Nc1nc2nn[nH]c2c(=O)[nH]1` [8-AZAGUANINE] registered a cytotoxic concentration (CC50) at 48 h of 23.7 µM. In other words, the double-digit micromolar range.
Molecule `CN(C)CCOC1=Cc2ccccc2Sc2ccc(Cl)cc21` [ZOTEPINE] showed a cytotoxic concentration (CC50) at 48 h of 12.3 µM.
With `COc1ccc2cc1Oc1ccc(cc1)C[C@H]1c3cc(c(OC)cc3CCN1C)Oc1c(OC)c(OC)cc3c1[C@H](C2)N(C)CC3` [FANCHININ], half-maximal cytotoxicity (CC50 at 48 h) was put at 5.17 µM.
Molecule `Clc1ccc(C(c2ccccc2)N2CCN(C/C=C/c3ccccc3)CC2)cc1` (stereo unspecified) [CLOCINIZINE] registered a half-maximal cytotoxic concentration (CC50) at 48 h of 21.9 µM.

Staying with this data set, now noted: chlorocebus sabaeus, Vero E6 (Vero C1008) cells, pCC50.
`CN[C@@H]1C[C@@H](c2ccc(Cl)c(Cl)c2)c2ccccc21` [(R,S)-INDATRALINE] had a 50% cytotoxic concentration (CC50) at 48 h of 8.51 µM.
`N#Cc1ccc2c(c1)N(CCCN1CCC(O)CC1)c1ccccc1S2` [PERICIAZINE] gave a cytotoxic concentration (CC50) at 48 h of 12.6 µM.
In turn, `CN1CCN(CC/C=C2/c3ccccc3Sc3ccc(S(=O)(=O)N(C)C)cc32)CC1` [THIOTHIXENE] gave a CC50 at 48 h of 4.9 µM.
Same read-out and setting: for `Clc1ccc(-c2nn(Cc3ccccc3)c3c2CCNCC3)cc1` [JNJ-18038683 FREE BASE] the value was 14.5 µM; for `COc1cc(/C=C/C(=O)CC(=O)/C=C/c2ccc(O)c(OC)c2)ccc1O` [CURCUMIN], 14.8 µM.
The same measure, in the same setting: next, `C[C@H]1[C@H]2CC[C@H]3[C@@H]4CC=C5C[C@@H](N(C)C)CC[C@]5(C)[C@H]4CC[C@]23CN1C` [CONESSINE]: 34.7 µM; `CCOC(=O)[C@H]1O[C@@H]1C(=O)N[C@@H](CC(C)C)C(=O)NCCC(C)C` [ALOXISTATIN]: greater than 100 µM; `Nc1nc2nn[nH]c2c(=O)[nH]1` [8-AZAGUANINE]: 23.4 µM.
The same measure, in the same setting: next, `CN(C)CCOC1=Cc2ccccc2Sc2ccc(Cl)cc21` [ZOTEPINE]: 12.3 µM; `COc1ccc2cc1Oc1ccc(cc1)C[C@H]1c3cc(c(OC)cc3CCN1C)Oc1c(OC)c(OC)cc3c1[C@H](C2)N(C)CC3` [FANCHININ]: 5.13 µM; `Clc1ccc(C(c2ccccc2)N2CCN(C/C=C/c3ccccc3)CC2)cc1` (stereo unspecified) [CLOCINIZINE]: 21.9 µM.

In another data set the test system is SARS-CoV-2. Kind of data set: microbe, parasite or virus in culture. The following applies: Severe acute respiratory syndrome coronavirus 2, Vero C1008, 48 h.
Turning to `CN[C@@H]1C[C@@H](c2ccc(Cl)c(Cl)c2)c2ccccc21` [(R,S)-INDATRALINE], the IC50 came out at 8.32 µM.
On the same count and under the same terms, for `N#Cc1ccc2c(c1)N(CCCN1CCC(O)CC1)c1ccccc1S2` [PERICIAZINE] the value was greater than 20 µM.
The same measure, in the same setting: next, `CN1CCN(CC/C=C2/c3ccccc3Sc3ccc(S(=O)(=O)N(C)C)cc32)CC1` [THIOTHIXENE]: greater than 100 µM.
The molecule `Clc1ccc(-c2nn(Cc3ccccc3)c3c2CCNCC3)cc1` [JNJ-18038683 FREE BASE] returned an IC50 greater than 25.1 µM.
Regarding `COc1cc(/C=C/C(=O)CC(=O)/C=C/c2ccc(O)c(OC)c2)ccc1O` [CURCUMIN], the IC50 was greater than 100 µM.
For the molecule `C[C@H]1[C@H]2CC[C@H]3[C@@H]4CC=C5C[C@@H](N(C)C)CC[C@]5(C)[C@H]4CC[C@]23CN1C` [CONESSINE], the IC50 came to 12 µM.
Molecule `CCOC(=O)[C@H]1O[C@@H]1C(=O)N[C@@H](CC(C)C)C(=O)NCCC(C)C` [ALOXISTATIN] displayed an IC50 of 34.3 µM.
The molecule `Nc1nc2nn[nH]c2c(=O)[nH]1` [8-AZAGUANINE] displayed an IC50 greater than 50.1 µM.
`CN(C)CCOC1=Cc2ccccc2Sc2ccc(Cl)cc21` [ZOTEPINE] yielded an IC50 greater than 100 µM.
Molecule `COc1ccc2cc1Oc1ccc(cc1)C[C@H]1c3cc(c(OC)cc3CCN1C)Oc1c(OC)c(OC)cc3c1[C@H](C2)N(C)CC3` [FANCHININ] had an IC50 of 3.98 µM.
Molecule `Clc1ccc(C(c2ccccc2)N2CCN(C/C=C/c3ccccc3)CC2)cc1` (stereo unspecified) [CLOCINIZINE] gave an IC50 greater than 100 µM.

The same data set, now with this note: Severe acute respiratory syndrome coronavirus 2, Vero C1008, 48 h, read-out: pIC50 (converted).
For the molecule `CN[C@@H]1C[C@@H](c2ccc(Cl)c(Cl)c2)c2ccccc21` [(R,S)-INDATRALINE], the IC50 was 8.32 µM.
With `N#Cc1ccc2c(c1)N(CCCN1CCC(O)CC1)c1ccccc1S2` [PERICIAZINE], the IC50 is greater than 20 µM.
Turning to `CN1CCN(CC/C=C2/c3ccccc3Sc3ccc(S(=O)(=O)N(C)C)cc32)CC1` [THIOTHIXENE], the IC50 is greater than 100 µM.
Turning to `Clc1ccc(-c2nn(Cc3ccccc3)c3c2CCNCC3)cc1` [JNJ-18038683 FREE BASE], the IC50 was greater than 25.1 µM.
For the molecule `COc1cc(/C=C/C(=O)CC(=O)/C=C/c2ccc(O)c(OC)c2)ccc1O` [CURCUMIN], the IC50 was greater than 100 µM.
The same measure, in the same setting: for `C[C@H]1[C@H]2CC[C@H]3[C@@H]4CC=C5C[C@@H](N(C)C)CC[C@]5(C)[C@H]4CC[C@]23CN1C` [CONESSINE] the value was 12 µM; for `CCOC(=O)[C@H]1O[C@@H]1C(=O)N[C@@H](CC(C)C)C(=O)NCCC(C)C` [ALOXISTATIN], 33.9 µM; for `Nc1nc2nn[nH]c2c(=O)[nH]1` [8-AZAGUANINE], greater than 50.1 µM.
As for `CN(C)CCOC1=Cc2ccccc2Sc2ccc(Cl)cc21` [ZOTEPINE], the IC50 was greater than 100 µM.
With `COc1ccc2cc1Oc1ccc(cc1)C[C@H]1c3cc(c(OC)cc3CCN1C)Oc1c(OC)c(OC)cc3c1[C@H](C2)N(C)CC3` [FANCHININ], the IC50 is 3.98 µM.
Same read-out and setting: for `Clc1ccc(C(c2ccccc2)N2CCN(C/C=C/c3ccccc3)CC2)cc1` (stereo unspecified) [CLOCINIZINE] the value was greater than 100 µM.
